Results as given in patent publication US9067966B2, “Lupeol-type triterpene derivatives as antivirals” (priority 2009, dated 2015).
Read-outs that look alike come from different tables or passages of the source.

Tested on: HIV-1 strain 92-HT599
Test: Anti HIV-1 p24 assay, strain 92-HT599 in MT2 cells
Type: cell-based
Conditions: for IC50: MT2 cells infected with HIV-1 92-HT599, p24, 96 hours
Procedure: MT2 cells were infected with the HIV-1 strain 92-HT599 (10TCID50/30000 cells). The infected cells are plated at the concentration of 30000 cells per well in a 96 well assay micro plate. A test compound was added to the micro plate in a defined format with the final concentration of DMSO (vehicle) being not more than 1%. Incubation was carried out in a CO2 incubator for 96 hours for viral infection. At the end of incubation period an aliquot from each well was taken for p24 estimation. The quantitation of p24 is an index for antiviral activity of the compound. Percent inhibition was calculated with reference to control values (vehicle).
P24 estimation was carried out using an Advance Biosciences kit as per the procedure as detailed by supplier.
[…] was made by dissolving test compound in DMSO. Subsequent dilutions were made with DMSO to make necessary working stocks (100×).

[1] = Human immunodeficiency virus 1, MT2 cells, HIV-1 92-HT599, p24, concentration 0.1 μM, read-out: Percent inhibition
[2] = Human immunodeficiency virus 1, MT2 cells, HIV-1 92-HT599, p24, concentration 1 μM, read-out: Percent inhibition
[3] = Human immunodeficiency virus 1, MT2, read-out: Percent inhibition

SMILES | inhibition at 0.1 µM [1] | inhibition at 1 µM [2] | IC50 (Human immunodeficiency virus 1) | other results
C=C(C)[C@@H]1CC[C@]2(C(=O)NC3CC(C(=O)NCCC(=O)N4CCOCC4)C3(C)C)CC[C@]3(C)[C@H](CC[C@@H]4[C@@]5(C)CC[C@H](O)C(C)(C)[C@@H]5CC[C@]43C)[C@@H]12 (stereo partly drawn) [Example 97, (1R,3aS,5aR,5bR,7aR,9S,11aR,11bR,13aR,13bR)-N-(2,2-dimethyl-3-(3-morpholino-3-oxopropylcarbamoyl)cyclobutyl)-9-hydroxy-5a,5b,8,8,11a-pentamethyl-1-(prop-1-en-2-yl)icosahydro-1H-cyclopenta[a]chrysene-3a-carboxamide] | 37% | 67% |  | 
C=C(C)[C@@H]1CC[C@]2(C(=O)N[C@@H]3C[C@H](C(=O)N4CCCC4)C3(C)C)CC[C@]3(C)[C@H](CC[C@@H]4[C@@]5(C)CC[C@H](O)C(C)(C)[C@@H]5CC[C@]43C)[C@@H]12 [Example 44, (1R,3aS,5aR,5bR,7aR,9S,11aR,11bR,13aR,13bR)-N-((1R,3S)-2,2-dimethyl-3-(pyrrolidine-1-carbonyl)cyclobutyl)-9-hydroxy-5a,5b,8,8,11a-pentamethyl-1-(prop-1-en-2-yl)icosahydro-1H-cyclopenta[a]chrysene-3a-carboxamide] | 15% | 43% |  | 
C=C(C)[C@@H]1CCC2(C(=O)N3C4CCC3CC(n3c(C)nnc3C(C)C)C4)CC[C@]3(C)[C@H](CC[C@@H]4[C@@]5(C)CC[C@H](O)C(C)(C)[C@@H]5CC[C@]43C)[C@@H]12 (stereo partly drawn) [Example 25, ((1R,5aR,5bR,7aR,9S,11aR,11bR,13aR,13bR)-9-hydroxy-5a,5b,8,8,11a-pentamethyl-1-(prop-1-en-2-yl)icosahydro-1H-cyclopenta[a]chrysen-3a-yl)(3-(3-isopropyl-5-methyl-4H-1,2,4-triazol-4-yl)-8-azabicyclo[3.2.1]octan-8-yl)methanone] | 33% | 25% |  | 
C=C(C)[C@@H]1CC[C@]2(C(=O)NC3CC(C(=O)NCCC(=O)N4CCCC4)C3(C)C)CC[C@]3(C)[C@H](CC[C@@H]4[C@@]5(C)CC[C@H](O)C(C)(C)[C@@H]5CC[C@]43C)[C@@H]12 (stereo partly drawn) [Example 98, (1R,3aS,5aR,5bR,7aR,9S,11aR,11bR,13aR,13bR)-N-(2,2-dimethyl-3-(3-oxo-3-(pyrrolidin-1-yl)propylcarbamoyl)cyclobutyl)-9-hydroxy-5a,5b,8,8,11a-pentamethyl-1-(prop-1-en-2-yl)icosahydro-1H-cyclopenta[a]chrysene-3a-carboxamide] | 1% | 50% |  | 
C=C(C)[C@@H]1CC[C@]2(C(=O)N[C@H]3C[C@@H](C(=O)N4CCOCC4)C3(C)C)CC[C@]3(C)[C@H](CC[C@@H]4[C@@]5(C)CC[C@H](OC(=O)[C@@H]6C[C@H](C(=O)O)C6(C)C)C(C)(C)[C@@H]5CC[C@]43C)[C@@H]12 [Example 61, (1S,3R)-3-(((1R,3aS,5aR,5bR,7aR,9S,11aR,11bR,13aR,13bR)-3a-((1S,3R)-2,2-dimethyl-3-(morpholine-4-carbonyl)cyclobutylcarbamoyl)-5a,5b,8,8,11a-pentamethyl-1-(prop-1-en-2-yl)icosahydro-1H-cyclopenta[a]chrysen-9-yloxy)carbonyl)-2,2-dimethylcyclobutanecarboxylic acid] |  |  | 7 nM | 
C=C(C)[C@@H]1CC[C@]2(C(=O)N[C@@H]3C[C@H](C(=O)N[C@H](C(=O)O)C(C)C)C3(C)C)CC[C@]3(C)[C@H](CC[C@@H]4[C@@]5(C)CC[C@H](O)C(C)(C)[C@@H]5CC[C@]43C)[C@@H]12 [Example 40, (S)-2-((1S,3R)-3-((1R,3aS,5aR,5bR,7aR,9S,11aR,11bR,13aR,13bR)-9-hydroxy-5a,5b,8,8,11a-pentamethyl-1-(prop-1-en-2-yl)icosahydro-1H-cyclopenta[a]chrysene-3a-carboxamido)-2,2-dimethylcyclobutanecarboxamido)-3-methylbutanoic acid] | 13% | 42% |  | 
C=C(C)[C@@H]1CC[C@]2(C(=O)NC3CCC(CN4CCCCC4)C3)CC[C@]3(C)[C@H](CC[C@@H]4[C@@]5(C)CC[C@H](OC(=O)CCC(=O)O)C(C)(C)[C@@H]5CC[C@]43C)[C@@H]12 (stereo partly drawn) [Example 96, 4-oxo-4-((1R,3aS,5aR,5bR,7aR,9S,11aR,11bR,13aR,13bR)-5a,5b,8,8,11a-pentamethyl-3a-(3-(piperidin-1-ylmethyl)cyclopentylcarbamoyl)-1-(prop-1-en-2-yl)icosahydro-1H-cyclopenta[a]chrysen-9-yloxy)butanoic acid] |  |  | 0.1 nM | 
C=C(C)[C@@H]1CC[C@]2(C(=O)N[C@@H]3CC[C@H](CN4CCCC(C)C4)C3)CC[C@]3(C)[C@H](CC[C@@H]4[C@@]5(C)CC[C@H](OC(=O)CC(C)(C)C(=O)O)C(C)(C)[C@@H]5CC[C@]43C)[C@@H]12 (stereo partly drawn) [Example 51, 2,2-dimethyl-4-oxo-4-((1R,3aS,5aR,5bR,7aR,9S,11aR,11bR,13aR,13bR)-5a,5b,8,8,11a-pentamethyl-3a-((1R,3S)-3-((3-methylpiperidin-1-yl)methyl)cyclopentylcarbamoyl)-1-(prop-1-en-2-yl)icosahydro-1H-cyclopenta[a]chrysen-9-yloxy)butanoic acid] |  |  | 1 nM | 
C=C(C)[C@@H]1CC[C@]2(C(=O)N[C@@H]3CC[C@H](CN4CCC(Cc5ccccc5)CC4)C3)CC[C@]3(C)[C@H](CC[C@@H]4[C@@]5(C)CC[C@H](OC(=O)CC(C)(C)C(=O)O)C(C)(C)[C@@H]5CC[C@]43C)[C@@H]12 [Example 99, 4-((1R,3aS,5aR,5bR,7aR,9S,11aR,11bR,13aR,13bR)-3a-((1R,3S)-3-((4-benzylpiperidin-1-yl)methyl)cyclopentylcarbamoyl)-5a,5b,8,8,11a-pentamethyl-1-(prop-1-en-2-yl)icosahydro-1H-cyclopenta[a]chrysen-9-yloxy)-2,2-dimethyl-4-oxobutanoic acid] | 89% | 97% |  | 
C=C(C)[C@@H]1CC[C@]2(C(=O)N[C@@H]3C=C[C@H](CN4CCOCC4)C3)CC[C@]3(C)[C@H](CC[C@@H]4[C@@]5(C)CC[C@H](O)C(C)(C)[C@@H]5CC[C@]43C)[C@@H]12 [Example 26, (1R,3aS,5aR,5bR,7aR,9S,11aR,11bR,13aR,13bR)-9-hydroxy-5a,5b,8,8,11a-pentamethyl-N-((1S,4R)-4-(morpholinomethyl)cyclopent-2-enyl)-1-(prop-1-en-2-yl)icosahydro-1H-cyclopenta[a]chrysene-3a-carboxamide] |  |  |  | inhibition at 0.1 µM [3]: 52%; inhibition at 1 µM [3]: 53%
C=C(C)[C@@H]1CC[C@]2(C(=O)N[C@H]3C[C@@H](C(=O)N4CCCC4)C3(C)C)CC[C@]3(C)[C@H](CC[C@@H]4[C@@]5(C)CC[C@H](O)C(C)(C)[C@@H]5CC[C@]43C)[C@@H]12 [Example 14, (1R,3aS,5aR,5bR,7aR,9S,11aR,11bR,13aR,13bR)-N-((1S,3R)-2,2-dimethyl-3-(pyrrolidine-1-carbonyl)cyclobutyl)-9-hydroxy-5a,5b,8,8,11a-pentamethyl-1-(prop-1-en-2-yl)icosahydro-1H-cyclopenta[a]chrysene-3a-carboxamide] | 71% | 32% |  | 
C=C(C)[C@@H]1CC[C@]2(C(=O)N[C@@H]3CC[C@H](CN4CCOCC4)C3)CC[C@]3(C)[C@H](CC[C@@H]4[C@@]5(C)CC[C@H](O)C(C)(C)[C@@H]5CC[C@]43C)[C@@H]12 [Example 23, (1R,3aS,5aR,5bR,7aR,9S,11aR,11bR,13aR,13bR)-9-hydroxy-5a,5b,8,8,11a-pentamethyl-N-((1R,3S)-3-(morpholinomethyl)cyclopentyl)-1-(prop-1-en-2-yl)icosahydro-1H-cyclopenta[a]chrysene-3a-carboxamide] | 11% | 37% |  | 
C=C(C)[C@@H]1CC[C@]2(C(=O)N[C@@H]3C[C@H](C(=O)N4CCCCC4)C3(C)C)CC[C@]3(C)[C@H](CC[C@@H]4[C@@]5(C)CC[C@H](OC(=O)[C@@H]6C[C@H](C(=O)O)C6(C)C)C(C)(C)[C@@H]5CC[C@]43C)[C@@H]12 [Example 59, (1S,3R)-3-(((1R,3aS,5aR,5bR,7aR,9S,11aR,11bR,13aR,13bR)-3a-((1R,3S)-2,2-dimethyl-3-(piperidine-1-carbonyl)cyclobutylcarbamoyl)-5a,5b,8,8,11a-pentamethyl-1-(prop-1-en-2-yl)icosahydro-1H-cyclopenta[a]chrysen-9-yloxy)carbonyl)-2,2-dimethylcyclobutanecarboxylic acid] |  |  | 6 nM | 
